Legend:
[1] = system: Phytophthora cactorum; assay: 96 well plate test; format: cell-based; details: Phytophthora cactorum; agar amended to 2, 0.2, 0.02 and 0.002 ppm, 18° C., assessed after 2 to 3 days
Method: Compounds were screened in 96 well plates with 10 compounds per plate. Each compound was screened using agar amended to 2, 0.2, 0.02 and 0.002 ppm, with proline at 50 and 10 ppm and 0.2% DMSO used as controls. Each test concentration and standard was replicated twice on a plate. Compounds were screened against Phytophthora cactorum. The agar used in the test is a 1% potato dextrose agar. 1000 spores/mL agar were added to the appropriate agar.
A ×10 stock solution in 2% DMSO was produced for each dose i.e. 20, 2, 0.2 and 0.02 ppm, and 10 μl of this added to the appropriate wells on the plate. An equivalent amount of 2% DMSO and proline stock at 500 and 100 ppm were added for the controls. To each well 90 μl of the appropriate agar spore suspension was added to give the required final well concentrations. Plates were incubated at room temperature (18° C.) and assessed after 2 to 3 days. The amount of pathogen growth in each well was compared to the DMSO controls and an EC50 concentration was calculated. The results are provided in Table 1 in which G represents no control detected at 2 ppm, F represents an EC50 of ≥2 ppm, and E represents an EC50 of less than 2 ppm.

[2] = system: Pythium ultimum; assay: Amended agar assay; format: cell-based; details: Globisporangium ultimum; potato dextrose agar amended with compound at 2 ppm, 18° C., 2 to 7 days; read-out: % control Pythium ultimum (% reduction in colony growth compared to the control plate)
Method: Amended Agar Assay Testing was carried out on potato dextrose agar (PDA) amended with each compound at a test concentration of 2 ppm. Amended agar was poured into three replicate 9 cm petri dishes. Each replicate dish was inoculated in the centre with a 5 mm agar plug taken from the leading edge of a culture aged between 2 and 7 days old; the age of the culture was dependent on the growth rate of the pathogen being tested. The test pathogen was Pythium ultimum. Plates were incubated at 18° C. and the diameter of each colony measured before growth on the fastest growing plate reached the plate edge. This varied between 2 and 7 days depending on the growth rate of test pathogens. The % reduction in colony growth compared to the control plate was calculated. The results are provided in Table 1, in which D represents no control detected at this concentration; C represents up to 50% control; B from 50 to 99% control; and A represents a control of greater than 99%, i.e. no detectable colony growth.

CCCCC(=O)Nc1cccc(COc2nc3c(Br)cccc3n2-c2nnnn2C)n1 [Compound 42] was tested. Which EC50 [1] did it give?
The EC50 was < 2 µg/mL.

And the inhibition of growth at 2 ppm [2]?
The inhibition of growth at 2 ppm was > 99%.

For Cc1cccc2c1nc(OCc1cccc(NC(=O)OC(C)(C)C)n1)n2-c1nnnn1C [Compound 21], which EC50 [1] is on record?
The EC50 was < 2 µg/mL.

And the inhibition of growth at 2 ppm [2]?
The inhibition of growth at 2 ppm was > 99%.
